Laboratory results reported in US11607422B2, “Uttroside B and derivatives thereof as therapeutics for hepatocellular carcinoma” (Rajiv Gandhi Centre for Biotechnology, an Autonomous …, priority 2016, dated 2023).

Experiments:
HepG2 cells = assay: MTT cell viability assay in HepG2 cells; assay type: cell-based, human; details: 72 h, MTT assay; read-out: IC50, cytotoxicity towards HepG2 cells
Description: (§1) Stocks of crude extracts and isolated compound of S. nigrum was prepared in DMSO for the in vitro studies and stored at −20° C. The DMSO concentration in all studies, including controls, was ≤0.2%. Cell viability assay was performed after 72 h of drug treatment while whole cell lysate preparation and cell cycle analysis were done after 24 h and 48 h of drug treatment. For studying NF-κB and AP-1, Uttroside B was incubated for 2 h before extraction.
MTT [3-(4,5-dimethylthiazole-2-yl)-2,5-diphenyltetrazolium bromide] assay is a standard colorimetric assay, suitable for analyzing proliferation, viability, and cytotoxicity. Briefly, the HepG2 cells were seeded in 96-well plates (2000 cells/well). […] Fresh media containing 25 μL of MTT solution (5 mg/mL in PBS) and 75 μL of complete medium was added to the wells and incubated for 2 h. At the end of incubation, lysis buffer (20% sodium dodecyl sulphate in 50% dimethyl formamide)was added to the wells (0.1 mL/well) and incubated for another 1 h at 37° C. At the end of incubation, the optical density was measured at 570 nm using ELISA plate reader (Bio-Rad). The relative cell viability in percentage was calculated as (A570 of treated samples/A570 of untreated samples)×100. The IC50 values were extrapolated from polynomial regression analysis of study data.^17

NF-κB in HepG2 cells = assay: Electrophoretic mobility shift assay of NF-κB; assay type: cell-based, human; details: HepG2 nuclear extract, EMSA
Description: as §1
(§2) Radiolabeling of oligonucleotide probes for electrophoretic mobility shift assay:HepG2 Cells were treated with Uttroside B for two hours, scraped and suspended in 150 μL of lysis buffer (10 mM HEPES(pH 7.9), 10 mM KCl, 0.1 mM EDTA, 0.1 mM EGTA, 1 mM DTT, 0.5 mMphenylmethylsulfonyl fluoride, 2 μg/mL leupeptin, 2 μg/mL aprotinin, 0.5 mg/ml benzamidine) for 30 min, after which 4.5 μl of 10% Nonidet P-40 was added. […]

AP-1 in HepG2 cells = assay: Electrophoretic mobility shift assay of AP-1; assay type: cell-based, human; details: HepG2, EMSA
Description: as §1, §2

Akt in HepG2 cells = assay: Western blot of Akt phosphorylation; assay type: cell-based, human; details: HepG2, no basal activation of Akt
Description: (§3) FIGS. 4A-4E are images showing Uttroside B inhibits MAPK and mTOR signaling, some of the crucial survival signals in liver cancer. […] HepG2 cells were treated with Uttroside B for different time intervals (0-240 min) and the whole cell lysate was resolved on a 10% gel and immunoblotted against phospho-ERK1/2 and phospho-Akt antibodies. Taxol was used as a positive control. […] HepG2 cells were treated with Uttroside B at different time intervals and the whole cell lysate was resolved on an 8% gel and immunoblotted against phospho-mTOR (2448) and phospho-mTOR (2481) antibodies.
(§4) Western blot analysis. Approximately 0.5×10^6 cells were grown on 60 mm culture plates and exposed to drugs as indicated for the desired time. The cells were then scraped out, washed in ice cold 1× PBS and pelleted down at 13000 rpm for 2 min. […]

[1] = system: mTOR pathway in HepG2 cells; assay: Western blot of mTOR and downstream target phosphorylation; assay type: cell-based, human
Description: as §3, §4
Uttroside B inhibits mTOR signaling, a crucial survival signal in liver cancer. […] Concomitantly, the phosphorylation of p70S6 kinase and 4E-BP-1, two m-TOR substrates whose phosphorylation can be considered as the read out of m-TOR activity, was found reduced in response to Uttroside B-treatment. […]

PC-12 = details: literature ref 13; read-out: IC50, cytotoxicity against PC-12; cited from earlier work

Compound: C[C@H](CC[C@@]1(O)O[C@H]2C[C@H]3[C@@H]4CC[C@H]5C[C@@H](O[C@@H]6O[C@H](CO)[C@H](O[C@@H]7O[C@H](CO)[C@@H](O)[C@H](O[C@@H]8OC[C@@H](O)[C@H](O)[C@H]8O)[C@H]7O[C@@H]7O[C@H](CO)[C@@H](O)[C@H](O)[C@H]7O)[C@H](O)[C@H]6O)CC[C@]5(C)[C@H]4CC[C@]3(C)[C@H]2[C@@H]1C)CO[C@@H]1O[C@H](CO)[C@@H](O)[C@H](O)[C@H]1O [Uttroside B]
- IC50 (HepG2 cells): 500 nM
- constitutive activation of NF-κB (NF-κB in HepG2 cells): could not produce any significant down-regulation
- AP-1 (downstream target of MAPK signaling) (AP-1 in HepG2 cells): down-regulated
- activation of Akt (Akt in HepG2 cells): no significant role in activating Akt pathway
- phosphorylation of p70S6 kinase and 4E-BP-1 [1]: found reduced
- phosphorylation of mTOR ([1]; different time intervals): time dependent decrease in the phosphorylation of m-TOR at 2448 and 2481 phosphorylation sites
- IC50 (PC-12): 1200 nM
